These results are taken from patent EP2666766A1, “Novel E,E-diene compounds and their use as medicaments and cosmetics” (Dr. August Wolff GmbH & Co. KG Arzneimittel, priority 2012, dated 2013).

This assay concerns Arachidonoylethanolamide Transport (AEAT). The assay is described as follows: Cellular uptake of [3H]-AEA (inhibition of AEA transport). Type of assay: cell-based. To be noted: Homo sapiens, U-937, 0.25 h; U937 cells; 100 nM AEA, 15 min, 37°C. The method, then: C. Cellular uptake of [^3H]-AEA
Human lymphoma U937 cells were grown in RPMI 1640 medium (Invitrogen, Basel, Switzerland) supplemented with 10% fetal bovine serum, […] fungizone (amphotericin B), 100 units/ml penicillin, 100 µg/ml streptomycin, and 2 mM L-glutamine (all from Invitrogen) and selected for the cellular AEA uptake assay. 2.5 x 10^6 cells were collected and suspended in 250 µL of RPMI 1640 medium (Invitrogen, Basel, Switzerland) at 37°C using glass silanized vials. Cells were pre-incubated 15 min at 37°C in presence of test compounds in a concentration range of 10^-11 - 10^-5 M or in presence of the same amount (5 µl) of vehicle control (DMSO). Then a mixture of 0.5 nM [^3H]-AEA (60 Ci/mmol) (American Radiolabeled Chemicals, Inc., San Louis, MO, US) and 99.5 nM of nonradioactive AEA (Tocris Cookson Ltd., Bristol, UK) resulting in a final concentration of 100 nM AEA was added and samples were incubated at 37°C for another 15 minutes. The reaction was stopped by rapid filtration over UniFilter®-96 GF/C (Perkin Elmer, Boston MA, US) pre-soaked with PBS 0.25 % BSA (w/v). Cells were washed three times with ice-cold PBS buffer containing 1% fatty acid free BSA (137 mM NaCl, 2.7 mM KCl, 10 mM Na2HPO4, 1.76 mM KH2PO4, 1% BSA fatty acid free, pH 7.4), dried and 40 µL MicroScint 20 scintillation cocktail (Perkin Elmer, Waltham, MA, US) was added. Radioactivity was measured using a Perkin Elmer 1450 Microbeta TRILUX liquid scintillation counter. Results were expressed as % of AEA uptake versus cells treated with solvent and the EC50 and IC50 values were calculated from the sigmoidal curves, which were generated using the GraphPad Prism 5.0 (GraphPad Software, San Diego, CA, US). Table 2: Inhibition of Arachidonoylethanolamide Transport (AEAT) (Determination as Described in Biological Assays C)

For orientation: EC50 means the concentration giving half of the maximal effect.

`CCCCCOC/C=C/C=C/CNC(=O)OCc1ccncc1` [Example 1] showed an EC50 of 147 nM.
For `CCCCCOC/C=C/C=C/CNC(=O)NCCc1ccc(O)c(O)c1` [Example 3], the EC50 amounted to 6 nM. This EC50 is about 24-fold lower than that of the compound before.
In turn, `CCCCOCC/C=C/C=C/CNC(=O)OCc1cc(C(=O)OCC)no1` [Example 9] had an EC50 of 3 nM.
In the case of `CCCCOCC/C=C/C=C/CNC(=O)OCc1cc(C(=O)N(C)C)no1` [Example 12] it was 6 nM; in that of `CCCCOCC/C=C/C=C/CNC(=O)OCc1cc(C(=O)NC)no1` [Example 13], 0.573 nM.
`CCCCOCC/C=C/C=C/CN(C)C(=O)OCc1cc(C(=O)OCC)no1` [Example 14] showed an EC50 of 286 nM. This EC50 lies about 500-fold higher than the previous one.
In the case of `CCCCOCC/C=C/C=C/CN(C)C(=O)OCc1cc(C(N)=O)no1` [Example 15] it was 70 nM; in that of `CCCCOCC/C=C/C=C/CN(C)C(=O)OCc1cc(C(=O)NC)no1` [Example 16], 7 nM; in that of `CCCCOCC/C=C/C=C/CN(C)C(=O)OCc1cc(C(=O)N(C)C)no1` [Example 17], 81 nM.
`CCCCOCC/C=C/C=C/CNC(=O)OCc1cc(C(N)=O)no1` [Example 18] came in with an EC50 of 9 nM.
